Tested on: Staphylococcus aureus
Experiment: Microbial antiadhesion test on reconstructed epidermis
Format: cell-based
Protocol: Before bacterial adhesion, the reconstructed epidermis is placed in contact for 2 hours with the composition of Example 1 at 37° C. 1 ml of bacterial suspension of Staphylococcus aureus at a concentration of 10^7 microorganisms/ml in Tryptone salt is then added thereto. After incubation for 24 hours at 37° C., the bacterial suspension is emptied out and five rinsings are performed with 1 ml of sterile distilled water. The reconstructed epidermis detached from its support is then ground using a processor in 18 ml of Tryptone salt. […] The adherent and viable cells are then counted. […]
A mixture of bacteria/test product, in the same ratio as in the antiadhesion test, is brought into contact for 24 hours at 37° C. The microorganisms are counted by tenfold dilution in Tryptone salt and inoculation, using a scraper, of 100 μl on Trypticase soybean agar. The colonies are counted after incubation for 24 hours at 37° C.
The quantitative results correspond to a reduction in the decimal logarithm of the mean number of viable Staphylococcus aureus adherent on the reconstructed epidermis after treatment with the test composition or test molecules, relative to the decimal logarithm of the mean number of viable Staphylococcus aureus adherent on the reconstructed epidermis after treating with water under the same conditions. […]

Compound: CC(C)CCCC(C)CCCC(C)CCCC(C)(O)C(O)CO (centres unmarked) [Pure phytanetriol, 3,7,11,15-tetramethyl-1,2,3-hexadecanetriol]
- Activity Antiadhesion, Quantitative results: reduction in the decimal logarithm of the mean number of viable Staphylococcus aureus adherent on the reconstructed epidermis relative to water (reconstructed epidermis pretreated 2 hours at 37° C., S. aureus 10^7 microorganisms/ml, incubation 24 hours at 37° C., relative to treatment with water, significant if difference greater than 0.5 log): −1.9 log
- Activity Antiadhesion, Qualitative results (term as a function of Log reduction of adhesion after 24 hours relative to the same test using water): Good (between 1.5 and 2 log reduction relative to water)

Reference: patent US20050131077A1, “Preventing or reducing the adhesion of microorganisms with phytanetriol” (priority 2003, published 2005)
